Data set [1] concerns HPV+E6E7 Ras tumor (E6/E7/Ras MOEs cells). The data set can be described thus: Tumor response to cisplatin/radiation therapy (CRT), HPV positive HNSCC mouse model. In kind it is in vivo, C57Bl/6 mice. The conditions noted are these: oxamate 15 mg/mouse; for tumor's response to CRT (tumor volume, FIG. 18): DCA 6 mg/mouse, daily i.p. on weekdays from day 11, with CRT. On the procedure:
FIG. 7 illustrates the effects of DCA plus oxamate on tumor growth (A) or on survival (B) with HPV+ model of HNSCC in wild-type C57Bl/6 mice. All mice received 3 rounds of cisplatin (0.132 mg/mouse) plus radiation (8 Gy/mouse) treatment (Tx) at weekly intervals starting […] after tumor initiation. Mice receiving DCA (6 mg/mouse) plus oxamate (15 mg/mouse) were treated every weekday, starting with the first chemoradiation treatment by i.p. injection.
FIG. 8 illustrates a comparison of prodrugs to DCA plus oxamate on tumor growth (A) or on survival (B) with HPV+ model of HNSCC in wild-type C57Bl/6 mice. All mice received 3 rounds of CRT [cisplatin (0.132 mg/mouse) plus radiation (8 Gy/mouse) treatment (Tx) at weekly intervals starting 11 days after tumor initiation]. Mice receiving DCA (6 mg/mouse) plus oxamate (2.2 mg/mouse) were treated every weekday starting with the first chemoradiation treatment by i.p. injection. Mice treated with AT-N4-001 or AT-N4-002 prodrugs (7.6 mg/mouse) were treated on the same schedule as mice treated with DCA+oxamate.
FIG. 18. The effects of DCA, oxamate, DCA plus oxamate on the responses of HPV+E6E7 Ras tumor to CRT. One million E6/E7/Ras MOEs cells were injected subcutaneously into the rear leg of wild-type C57Bl/6 mice. After 11 days, a treatment with DCA (6 mg/mouse) and oxamate (15 mg/mouse) were injected daily by i.p. on weekdays for the remainder of the experiment. All mice received three rounds of treatment with CRT (0.132 mg/mouse cisplatin and 8 Gy radiation, weekly starting at day 11). Tumor volume is mm^3.
FIG. 19 depicts the effects of DCA plus oxamate vs the effects of prodrug 1 or prodrug 2 on the responses of HPV+E6E7 Ras tumor to CRT. Tumors were initiated by injecting 0.5×10^6 E6/E7/Ras MOEs cells. After 11 days, a treatment with DCA (6 mg/mouse) plus oxamate (2 mg/mouse), or prodrug 1 (7.6 mg/mouse), or prodrug 2 (7.6 mg/mouse) was initiated daily by i.p. on weekdays. The doses of DCA and oxamate were equal molar equivalents as would be released from the prodrugs. All mice received three rounds of treatment with CRT (0.132 mg/mouse cisplatin and 8 Gy radiation, weekly starting at day 11). Tumor volume is in mm^3.
The effects of various treatments on tumor responses were carried out by examining whether the treatment could improve tumor's response to CRT with a HPV positive HNSCCs mouse model. CRT is a standard treatment for HPV-positive HNSCC in the clinic (46). […] Applicants also used this model to investigate the effects of lactate on CRT-induced immune-mediated cancer clearance (46) and DCA's effect on the tumor's response to CRT (unpublished data). The literature reported dosages of DCA and oxamate were used (6,23,52,53)(41).
To study the effects of the prodrugs on tumor growth in vivo, C57Bl/6 immune-competent mice implanted with E6/E7/Ras MOEs cells were used as described previously (46). All experiments were performed in accordance with institutional and national guidelines and regulations with the protocol approved by the Animal Care and Use Committee at Sanford Research. Briefly, 1×10^6 tumor HPV+HNSCC cells were injected into the right subcutaneous flank of syngeneic male C57Bl/6 mice. Eleven days after tumor initiation, treatment was initiated daily on weekdays by i.p. injection of vehicle, DCA, Oxamate, DCA+oxamate, prodrug 1, or prodrug 2. All mice received three rounds of treatment with cisplatin/radiation therapy (CRT: 0.132 mg/mouse cisplatin and 8 Gy radiation, weekly starting at day 11). Tumor dimensions were measured weekly to monitor growth. Mice with tumors reaching a volume of 3000 mm^3 or becoming substantially emaciated were euthanized.
To study the effects of the new prodrugs on tumor growth in vivo, C57Bl/6 immune-competent mice were used. Tumors were established on the right flank of the leg. After 11 days, treatment was initiated with daily i.p. injection of vehicle, AT-N4-001, or AT-N4-002. […]

Another data set addresses mammalian LDH. The conditions noted are these: reference (47); read-out: Ki value of oxamate for mammalian LDH; cited from earlier work.
Data set [2] concerns nasopharyngeal carcinoma cells / normal nasopharyngeal epithelial cells. The conditions noted are these: reference (44); cited from earlier work.
For data set [3] the following is noted: reference (44); cited from earlier work.
In another data set the test system is E6E7/Ras MTE cells. Kind of data set: Clonogenic growth (colony formation). In kind it is cell-based, mouse. The conditions noted are these: 5 mM prodrugs, 10 mM DCA, 7 days, vs DMSO. On the procedure: FIG. 4 illustrates prodrugs AT-N4-001 and AT-N4-002 inhibiting cell proliferation and colony growth of E6E7/Ras MTE cells. (A) E6E7/Ras MTE cultures were treated with DMSO (Con), AT-N4-001, or AT-N4-[…] 002 at the indicated concentration for one day. Live cell number was then determined using a trypan blue exclusion assay. (B) E6E7/Ras MTE cells were seeded on 100-mm plate at 500 cells per plate (in triplicate). After one day, cells were treated as indicated and allowed to grow until colonies of untreated controls reached 50 or more cells (7 days). Plates were stained with Coomassie blue to visualize the colonies. (C) Quantification of colonies described in B. Colonies with more than 15 cells were counted.
E6E7/Ras MTE cells are mouse tonsilar epithelial cells that have been transformed by HPV oncogenes E6 and E7 together with activated ras. They form tumors in mice and are a model of human HPV+HNSCC. These cells were treated in culture with either vehicle control (DMSO), AT-N4-001, or AT-N4-002 at concentrations of 1 mM, 2.5 mM and 5 mM for one day. Live cells were counted using a hemocytometer (FIG. 4A). […] The effects of the compounds on clonogenic growth of the cells were also tested. E6/E7/Ras MTE cells were seeded in 100 mm plates in triplicate, and the next day cells were treated with either vehicle control DMSO, 5 mM AT-N4-001, 5 mM AT-N4-002, or 10 mM DCA. DCA was used at a twice the concentration because the prodrugs each carry two molecules of DCA.

A further data set relates to E6E7/Ras cells. The data set can be described thus: Lactate secretion into culture medium, enzyme based assay. The settings on record: 5 mM each, 4 hours. In kind it is cell-based, mouse. On the procedure:
FIG. 5 illustrates the reduction of lactate secretion in cultured cells by prodrugs AT-N4-001 and AT-N4-002. E6E7Ras cells were plated in 100 mm dishes and grown to confluence. The medium was changed to bicarbonate-free DMEM-10% FBS with or without the indicated treatments (5 mM each). Four hours later the medium was collected and lactate was measured using an enzyme based assay from Eton Bioscience. Con indicates the control samples for the DCA and Oxamate samples. DMSO indicates the vehicle only control for the AT-N4-001 and AT-N4-002 prodrug samples.
AT-N4-001 and AT-N4-002 should each release two molecules of DCA and one molecule of oxamate. Both DCA and oxamate are expected to reduce cellular lactate production. Therefore, we examined the changes in lactate after treatment of E6E7/Ras cells with the prodrugs. E6E7/Ras cells were seeded into 100 mm dishes and the next day treated with 5 mM AT-N4-001, 5 mM AT-N4-002, 5 mM DCA plus 5 mM oxamate, or 5 mM DCA alone. Culture medium was collected after 4 hours of treatment and lactate levels were determined (FIG. 5). […] To confirm the effects of these compounds on lactate production, the extra cellular acidification rate (ECAR) was measured using a Seahorse XF24 Extracellular Flux analyzer. Since lactate is transported from cells together with a proton, acidification of the culture medium (ECAR) is an estimate of lactate production and the glycolytic rate of cells. In the experiment shown in FIG. 6A, ECAR measurements were initiated in the absence of glucose. At point A, glucose was added and ECAR measurements continued. […] At point B, additional glucose along with vehicle (control), DCA plus oxamate, or AT-N4-002 was added. […] This is shown by a bar graph in FIG. 6B.

For the next data set, the target named is PDK. The settings on record: reported (26); read-out: Ki value of DCA for PDK; cited from earlier work.
The conditions of data set [4]: clinical use, reference (24); cited from earlier work.

Broadly, the Ki is a dissociation constant, usually derived from enzyme kinetics or from competition with a known ligand.

Structures can show the parent of a compound that is named as a salt.

`NC(=O)C(=O)O` [oxamate, oxamic acid sodium salt]: the “tumor's response to CRT (tumor volume, FIG. 18)” value in data set [1] is “improved tumor's response to CRT”. For the same compound, on mammalian LDH, the Ki was 116 µM. In data set [2], the “nasopharyngeal carcinoma cell proliferation in vitro and in vivo” value is listed as “significant suppression”; the “toxicity to normal nasopharyngeal epithelial cells in vitro” value is listed as “minimum toxicity”. In data set [3], the tolerability in mice entry is “well tolerated”.

On to `O=C([O-])C(Cl)Cl.[Na+]` [DCA, dichloroacetic acid sodium salt, reference compound], for which, in data set [1], the “tumor's response to CRT (tumor volume, FIG. 18)” value was “improved tumor's response to CRT”. The “effectiveness of DCA versus oxamate in improving response to CRT” value in data set [1] (FIG. 18, DCA 6 mg/mouse, with CRT) is “more effective than oxamate”. The “colony size (FIG. 4B)” value in the data set on E6E7/Ras MTE cells was “approximately equal reductions in colony size”. For the same compound, the “lactate production (culture medium, FIG. 5)” value in the data set on E6E7/Ras cells is on record as “reduces lactate production but to a lesser extent than the prodrugs”. At PDK, the Ki is 10 to 250 µM. For the same compound, the “clinical safety and tolerability” value in data set [4] is “safe and well tolerated with relatively modest toxicities”.

The record behind these values is patent US9556113B2, “Combination uses of dichloroacetate and oxamate, and their prodrugs, for cancer treatment” (The South Dakota Board of Regents, priority 2014, dated 2017).
